Assay results reported in patent US9463210B1, “Method for alleviating cravings and discomfort associated with smoking cessation8” (priority 2015, dated 2016).
Where two headings read alike, the source gives them in different places.

How the values were obtained:
[1] = oral intakes up to 4.6 grams per day; cited from earlier work
[2] = molecular target: acetylcholinesterase (AChE) (Homo sapiens, UniProt P22303); settings: colorimetric method; cited from earlier work
mouse endothelial cells = settings: cited from earlier work
mouse = settings: cited from earlier work
Rat [3] = settings: cited from earlier work
[4] = system: diabetic and at-risk-of-diabetes patients; settings: 1.5 to 3 g daily for several years; cited from earlier work
[5] = cited from earlier work; for half-life: oral
isolated rat lungs = settings: dose-dependent; cited from earlier work
NO production = settings: cited from earlier work
NF-κB pathway = settings: cited from earlier work
mice ear edema = settings: cited from earlier work
[6] = system: tyrosine hydroxylase (TH) mRNA in PC12 cells; settings: cited from earlier work
[7] = system: Dopamine beta-hydroxylase (DBH) mRNA in PC12 cells; settings: cited from earlier work
[8] = Human equivalent dose estimate of the forskolin LD50 (Reagan-Shaw)
Rat [9] = settings: in vivo; cited from earlier work
[10] = cited from earlier work
[11] = system: mouse microglial cell line MG6; settings: cited from earlier work
Kuming mice = settings: acute toxicity study; cited from earlier work

Sequence of acetylcholinesterase (AChE) (P22303 32-614, species assumed): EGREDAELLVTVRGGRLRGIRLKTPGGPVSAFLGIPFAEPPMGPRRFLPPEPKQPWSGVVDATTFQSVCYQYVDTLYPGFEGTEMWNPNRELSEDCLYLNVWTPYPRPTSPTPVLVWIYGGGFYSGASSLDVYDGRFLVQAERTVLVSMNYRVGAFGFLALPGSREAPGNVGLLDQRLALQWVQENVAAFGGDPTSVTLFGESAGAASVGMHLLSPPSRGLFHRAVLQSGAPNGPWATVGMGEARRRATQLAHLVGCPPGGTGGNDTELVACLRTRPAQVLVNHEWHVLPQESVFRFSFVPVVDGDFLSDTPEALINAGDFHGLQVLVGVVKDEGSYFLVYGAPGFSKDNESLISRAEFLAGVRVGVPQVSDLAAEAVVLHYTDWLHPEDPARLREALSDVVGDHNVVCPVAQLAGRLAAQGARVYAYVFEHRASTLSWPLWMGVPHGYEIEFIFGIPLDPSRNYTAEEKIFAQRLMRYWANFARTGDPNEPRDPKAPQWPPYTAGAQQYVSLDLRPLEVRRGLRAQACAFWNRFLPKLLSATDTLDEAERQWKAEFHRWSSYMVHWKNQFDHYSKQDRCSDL

phosphatidylcholine [PC]
tolerability [1]: very well tolerated

CC1=CC[C@@H]2C[C@H]1C2(C)C [(+)-alpha-pinene]
Inhibition of AChE [2]: potent inhibitors

NC(=O)c1cccnc1 [niacinamide, nicotinamide]
SEB-induced endothelial NO production (mouse endothelial cells; IFN-primed endothelial cells): significantly reduced
IFN-gamma induction of endothelial class II MHC surface antigen (mouse endothelial cells): markedly reduced
iNOS mRNA levels (mouse endothelial cells): reduced
LD50 (mouse): 2500 mg/kg
LD50 (Rat [3]): 3500 mg/kg
effect on biochemical parameters including liver and kidney function tests [4]: no effect
half-life cautiously assumed for humans ([5]; agreement of both studies): 4 h
effect on blood pressure, pulse or body temperature ([5]; human, oral doses of 1-6 g): no detectable effect
half-life ([5]; human, 1-g dose): ~1.5 h
half-life ([5]; human, 2 g): ~4 h
half-life ([5]; human, 4 and 6 g): 7 to 9 h
PMA-induced pathophysiological and biochemical changes (acute lung injury) (isolated rat lungs): diminished

CC(C)=CCCC(C)=CC=O [citral]
NO production inhibitory activity, IC50 (NO production): 13.18 mg/L
activity on COX-2 (NF-κB pathway): could not efficiently suppress
expression of IKK, iNOS, and nuclear NF-κB (NF-κB pathway; dose-dependent): decreased
inflammation reduction, ear edema (mice ear edema; 0.1 mg per ear): 22%
inflammation reduction, ear edema (mice ear edema; 0.3 mg per ear): 83%

CN1CCCC1c1cccnc1 (centres unmarked) [Nicotine]
increase of TH mRNA levels [6]: 3.3 fold
increase of DBH mRNA levels [7]: 3.1 fold

C=C[C@@]1(C)CC(=O)[C@]2(O)[C@@]3(C)[C@@H](O)CCC(C)(C)[C@@H]3[C@H](O)[C@H](OC(C)=O)[C@@]2(C)O1 [forskolin]
estimated LD50 in a person ([8]; 100 pound (45.4 Kg) person): 18,773.51 mg
LD50 ([8]; rat, oral, 2550×(6/37), Reagan-Shaw, read-out: HED of the rat LD50): 413 mg/kg
oral LD50 (rat) (Rat [9]): 2,550 mg/kg

CNCC(=O)O [sarcosine, N-methylglycine]
safety ([10]; 2 and 4 gm/d for one week): appears to be safe
time to peak concentration in serum ([10]; human, 2 and 4 gm/d): two

CC(C)c1cc2c(c(O)c1O)[C@@]1(C(=O)O)CCCC(C)(C)[C@@H]1CC2 [carnosic acid]
NO production ([11]; associated with decrease in inducible NO synthase): inhibited
cell survival ([11]; at the concentrations used): Neither CA nor LPS affected cell survival
LPS-induced activation of MG6 cells ([11]; in vitro): inhibited
oral lethal dose (LD50) (Kuming mice): 7100 mg/kg of body weight

CC1=CC[C@H]2C[C@@H]1C2(C)C [(−)-alpha-pinene]
Inhibition of AChE [2]: potent inhibitors

CC1=CCC2C(C1)C2(C)C (single isomer, unassigned; (+)) [(+)-3-carene]
Inhibition of AChE [2]: potent inhibitors

B1: interleukin-10: interleukin-10 (protein, UniProt P22301 19-178, looked up)
Interleukin-10: SPGQGTQSENSCTHFPGNLPNMLRDLRDAFSRVKTFFQMKDQLDNLLLKESLLEDFKGYLGCQALSEMIQFYLEEVMPQAENQDPDIKAHVNSLGENLKTLRLRLRRCHRFLPCENKSKAVEQVKNAFNKLQEKGIYKAMSEFDIFINYIEAYMTMKIRN
IFN-gamma induction of endothelial class II MHC surface antigen (mouse endothelial cells): no effect
SEB-induced endothelial NO production (mouse endothelial cells): significantly reduced
iNOS mRNA levels (mouse endothelial cells): did not consistently reduce
